# In patent US20060052283A1, “The Sperm Binding Ligand HIPRTY and Its Involvement in Embryo Cleavage” (priority 2004, published 2006):
# Test system: mouse sperm
# Assay: Phage combinatorial peptide library screening of intact live sperm
# Settings: live CB6F1 mouse sperm, 4 rounds of binding, amplification and selection, Ph.D-7 and Ph.D-12 libraries
# Experimental: A mouse sperm suspension was isolated from cauda epididymides of fertile male CB6F1 mice. Briefly, the epididymides and vas deferens were dissected in a 35 mm dish containing 5 ml of CZB (pre-equilibrated at 37° C. and 5% CO2) and gently compressed to release sperm. Following a 10 minute incubation period, the epididimydes were removed and the sperm suspension incubated for a further 30 minute period. A 500 ul aliquot of the sperm suspension was removed from the top layer of media and placed in a 1.5 ml centrifuge tube. A 3 ul volume of phage combinatorial peptide library was added to this tube and the suspension incubated for 1 hour at 37 degrees. Following incubation, the sperm suspension was washed as follows. The suspension was centrifuged in a tabletop microcentrifuge at maximum speed for 1 minute and the majority of the supernatant removed. The remaining volume was re-suspended in 1 ml of media via pipetting and separated into two 500 ul aliquots in two 15 ml centrifuge tubes. A further 14 ml of CZB wash media was added to these tubes followed by 15 min incubation at room temperature. The tubes were centrifuged at 1000 g for 5 minutes and the supernatant removed down to an approximate 50 ul volume. […]
# Phage DNA was isolated by several different methods. […] DNA quality and quantity was determined via agarose gel electrophoresis on vertical mini-gels with novel illumination and filters. […]
substance,measurement,value
HIPRTY,binding sequence selected from combinatorial libraries,binding sequence of mouse sperm
